In the CheMixHub viscosity set:

Test: xn = mol fraction of the nth substance listed

OC1CCCCC1 + C1CCCCC1
101 kPa
Conditions | viscosity [mPa·s]
303.15 K, x2 = 0.05 | 19
303.15 K, x2 = 0.09 | 15.63
303.15 K, x2 = 0.14 | 12.83
308 K, x2 = 0.1168 | 10.68
308 K, x2 = 0.2322 | 7.143
308 K, x2 = 0.3358 | 4.937
308 K, x2 = 0.4443 | 3.51
308 K, x2 = 0.5452 | 2.453
308 K, x2 = 0.6483 | 1.716
308 K, x2 = 0.7411 | 1.326
308 K, x2 = 0.8311 | 1.049
308 K, x2 = 0.918 | 0.8891
323.15 K, x2 = 0.05 | 7.54
323.15 K, x2 = 0.09 | 6.39
323.15 K, x2 = 0.14 | 5.53

CCN(CC)CCO + CC(=O)N(C)C
viscosity [mPa·s], 101 kPa
Conditions | 298.15 K | 308.15 K | 318.15 K
x2 = 0.0505 | 2.874 | 2.164 | 1.669
x2 = 0.0999 | 2.683 | 1.999 | 1.517
x2 = 0.1499 | 2.512 | 1.849 | 1.374
x2 = 0.2004 | 2.356 | 1.715 | 1.254
x2 = 0.2997 | 2.089 | 1.502 | 1.08
x2 = 0.3997 | 1.871 | 1.314 | 0.956
x2 = 0.5008 | 1.677 | 1.207 | 0.861
x2 = 0.5998 | 1.51 | 1.103 | 0.792
x2 = 0.6995 | 1.357 | 1.015 | 0.747
x2 = 0.7989 | 1.2 | 0.932 | 0.721
x2 = 0.8997 | 1.046 | 0.854 | 0.7

CCCCCCCCn1cc[n+](C)c1.O=[N+]([O-])[O-] + CCO
Conditions | viscosity [mPa·s]
293.15 K, 101 kPa, x2 = 0.128 | 464.3

CCCCCCCO + CCCCCCO
viscosity [mPa·s], 101.8 kPa
Conditions | x2 = 0.1128 | x2 = 0.3611 | x2 = 0.5306 | x2 = 0.6915 | x2 = 0.9117
298.15 K | 5.786 | 5.339 | 5.173 | 4.875 | 4.5
308.15 K | 4.235 | 3.946 | 3.829 | 3.625 | 3.347
318.15 K | 3.16 | 2.963 | 2.879 | 2.737 | 2.535

CCCCCCCCCC + CC(C)O
viscosity [mPa·s]
Conditions | 293.15 K | 298.15 K | 303.15 K | 308.15 K
101 kPa, x2 = 0.0571 | – | 0.839 | – | 0.757
101 kPa, x2 = 0.1237 | – | 0.837 | – | 0.74
101 kPa, x2 = 0.1714 | – | 0.838 | – | 0.726
101 kPa, x2 = 0.2709 | – | 0.851 | – | 0.735
101 kPa, x2 = 0.3525 | – | 0.867 | – | 0.746
101 kPa, x2 = 0.4184 | – | 0.888 | – | 0.762
101 kPa, x2 = 0.5253 | – | 0.945 | – | 0.8
101 kPa, x2 = 0.5786 | – | 0.986 | – | 0.824
101 kPa, x2 = 0.6537 | – | 1.059 | – | 0.882
101 kPa, x2 = 0.6971 | – | 1.113 | – | 0.909
101 kPa, x2 = 0.7895 | – | 1.261 | – | 1.013
101 kPa, x2 = 0.8717 | – | 1.457 | – | 1.152
101 kPa, x2 = 0.9099 | – | 1.583 | – | 1.246
101 kPa, x2 = 0.9453 | – | 1.727 | – | 1.35
101.32 kPa, x2 = 0.0412 | 0.896 | 0.831 | 0.773 | –
101.32 kPa, x2 = 0.0998 | 0.893 | 0.827 | 0.768 | –
101.32 kPa, x2 = 0.161 | 0.904 | 0.847 | 0.785 | –
101.32 kPa, x2 = 0.2938 | 0.916 | 0.845 | 0.777 | –
101.32 kPa, x2 = 0.3954 | 0.957 | 0.878 | 0.809 | –
101.32 kPa, x2 = 0.4988 | 1.006 | 0.916 | 0.836 | –
101.32 kPa, x2 = 0.5943 | 1.095 | 0.986 | 0.893 | –
101.32 kPa, x2 = 0.7019 | 1.241 | 1.11 | 0.994 | –
101.32 kPa, x2 = 0.8012 | 1.436 | 1.273 | 1.127 | –
101.32 kPa, x2 = 0.9017 | 1.759 | 1.538 | 1.348 | –
101.32 kPa, x2 = 0.951 | 2.014 | 1.742 | 1.515 | –

CCCCC + CCCCCCCCC
298.15 K, 101.33 kPa
Conditions | viscosity [mPa·s]
x1 = 0.0925 | 0.611
x1 = 0.1995 | 0.5548
x1 = 0.308 | 0.5016
x1 = 0.403 | 0.4556
x1 = 0.4861 | 0.4179
x1 = 0.6016 | 0.3691
x1 = 0.702 | 0.3268
x1 = 0.8033 | 0.2892
x1 = 0.904 | 0.2538

CCCCC + CC(C)O
298.15 K, 101 kPa
Conditions | viscosity [mPa·s]
x2 = 0.1128 | 0.262
x2 = 0.2204 | 0.281
x2 = 0.3273 | 0.323
x2 = 0.4232 | 0.385
x2 = 0.516 | 0.466
x2 = 0.6004 | 0.577
x2 = 0.6858 | 0.71
x2 = 0.7699 | 0.966
x2 = 0.8524 | 1.272
x2 = 0.9438 | 1.702

C1CCCCCCC1 + CCCCCCC
Conditions | viscosity [mPa·s]
308.15 K, 101 kPa, x2 = 0.1897 | 1.125

CCCCC + CO
Conditions | viscosity [mPa·s]
293.15 K, 101 kPa, x1 = 0.0471 | 0.5884
293.15 K, 101 kPa, x1 = 0.0999 | 0.5839
293.15 K, 101 kPa, x1 = 0.1602 | 0.5769
293.15 K, 101 kPa, x1 = 0.2288 | 0.5663
293.15 K, 101 kPa, x1 = 0.3074 | 0.5509
293.15 K, 101 kPa, x1 = 0.3999 | 0.5282
293.15 K, 101 kPa, x1 = 0.5084 | 0.4953
293.15 K, 101 kPa, x1 = 0.6397 | 0.4464
293.15 K, 101 kPa, x1 = 0.7999 | 0.3733
298.15 K, 101.33 kPa, x2 = 0.0464 | 0.245
298.15 K, 101.33 kPa, x2 = 0.0696 | 0.249
298.15 K, 101.33 kPa, x2 = 0.1597 | 0.265
298.15 K, 101.33 kPa, x2 = 0.2228 | 0.279
298.15 K, 101.33 kPa, x2 = 0.4412 | 0.327
298.15 K, 101.33 kPa, x2 = 0.6294 | 0.384
298.15 K, 101.33 kPa, x2 = 0.741 | 0.424
298.15 K, 101.33 kPa, x2 = 0.7958 | 0.445
298.15 K, 101.33 kPa, x2 = 0.9419 | 0.518
298.15 K, 101.33 kPa, x2 = 0.9734 | 0.537
303.15 K, 101 kPa, x1 = 0.0471 | 0.5267
303.15 K, 101 kPa, x1 = 0.0999 | 0.5186
303.15 K, 101 kPa, x1 = 0.1602 | 0.5081
303.15 K, 101 kPa, x1 = 0.2288 | 0.4945
303.15 K, 101 kPa, x1 = 0.3074 | 0.4767
303.15 K, 101 kPa, x1 = 0.3999 | 0.4529
303.15 K, 101 kPa, x1 = 0.5084 | 0.421
303.15 K, 101 kPa, x1 = 0.6397 | 0.3765
303.15 K, 101 kPa, x1 = 0.7999 | 0.3135
313.15 K, 101 kPa, x1 = 0.0471 | 0.5012
313.15 K, 101 kPa, x1 = 0.0999 | 0.4866
313.15 K, 101 kPa, x1 = 0.1602 | 0.4694
313.15 K, 101 kPa, x1 = 0.2288 | 0.4492
313.15 K, 101 kPa, x1 = 0.3074 | 0.4254
313.15 K, 101 kPa, x1 = 0.3999 | 0.3963
313.15 K, 101 kPa, x1 = 0.5084 | 0.3607
313.15 K, 101 kPa, x1 = 0.6397 | 0.3156
313.15 K, 101 kPa, x1 = 0.7999 | 0.2574

CC(=O)CC(C)(C)O + O
Conditions | viscosity [mPa·s]
298.15 K, 101 kPa, x1 = 0.017 | 1.261
298.15 K, 101 kPa, x2 = 0.2547 | 4.143
298.15 K, 101 kPa, x2 = 0.4824 | 5.758
298.15 K, 101 kPa, x2 = 0.6067 | 6.204
298.15 K, 101 kPa, x2 = 0.7114 | 5.917
298.15 K, 101 kPa, x2 = 0.776 | 5.315
298.15 K, 101 kPa, x2 = 0.8342 | 4.609
298.15 K, 101 kPa, x2 = 0.886 | 3.616
298.15 K, 101 kPa, x2 = 0.9237 | 2.698
298.15 K, 101 kPa, x2 = 0.9508 | 2.022
298.15 K, 101 kPa, x2 = 0.9511 | 2.022
298.15 K, 101 kPa, x2 = 0.9717 | 1.516
303.15 K, 100 kPa, x2 = 0.1 | 2.81
303.15 K, 100 kPa, x2 = 0.2 | 3.27
303.15 K, 100 kPa, x2 = 0.3 | 3.65
303.15 K, 100 kPa, x2 = 0.4 | 4.15
303.15 K, 100 kPa, x2 = 0.5 | 4.55
303.15 K, 100 kPa, x2 = 0.6 | 4.71
303.15 K, 100 kPa, x2 = 0.7 | 4.57
303.15 K, 100 kPa, x2 = 0.8 | 4.08
303.15 K, 100 kPa, x2 = 0.9 | 2.6
323.15 K, 100 kPa, x2 = 0.1 | 1.69
323.15 K, 100 kPa, x2 = 0.2 | 1.82
323.15 K, 100 kPa, x2 = 0.3 | 2.06
323.15 K, 100 kPa, x2 = 0.4 | 2.1
323.15 K, 100 kPa, x2 = 0.5 | 2.3
323.15 K, 100 kPa, x2 = 0.6 | 2.32
323.15 K, 100 kPa, x2 = 0.7 | 2.31
323.15 K, 100 kPa, x2 = 0.8 | 2.09
323.15 K, 100 kPa, x2 = 0.9 | 1.48

CS(C)=O + CC(C)=O
302.4 K, 101 kPa
Conditions | viscosity [mPa·s]
x1 = 0.0644 | 0.7031
x1 = 0.1924 | 0.809
x1 = 0.3826 | 1.14
x1 = 0.508 | 1.554
x1 = 0.6325 | 2.09
x1 = 0.8173 | 2.443
